Like-named read-outs stand apart in the source and are kept apart here.
Tests used:
[1] = test system: MIA PaCa-2 cell line (K-RAS G12C); experiment: cells; assay type: cell-based
Procedure: (§1) a) On day 1, seed cells were placed in T75 a flask. b) On day 3, the medium was taken out and washed once with DPBS. c) Cells were trypsinized with 2 mL TrypLE™ Express enzyme at room temperature (RT) or 37° C. until cells detached. d) 5 mL of fresh medium was added to suspend the cells, and then the suspension was centrifuged at 1000 rpm and room temperature for 5 min. e) The supernatant was discarded, and the cells were resuspended in 5 mL of fresh medium and counted using Countess™ H. f) The cells were seeded back into the T75 flask for further culture or placed into an assay plate for 3D cell proliferation assay.
(§2) The cells were seeded at a density of 600 cells/well in a 384-well plate with 40 μL of medium per well and a final DMSO concentration of 0.5%. b) On day 4, a 3D CTG reagent was added to each well, followed by shaking at room temperature for 1 h. c) The signals were recorded using Envision.
(§3) a) Robustness was examined using 0.5% DMSO and data of blank control medium: H=mean (DMSO); L=mean (medium); SD (H)=STDEV (DMSO); SD (L)=STDEV (medium);
(§4) Y=peak valley value+(peak top value−peak valley value)/(1+10^((Log IC50−X)×HillSlope));
(§5) X: logarithm of compound concentration; Y: percent inhibition (% inhibition); Peak top and peak valley values: the plateau period units are the same as Y; log IC50: the same logarithmic unit as X; HillSlope: slope coefficient or Hill slope.

[2] = test system: PC-9 cell line (K-RAS wild type); experiment: cells; assay type: cell-based; conditions: Homo sapiens, PC-9, 96 h; 3D culture, CellTiter-Glo 3D, read on day 4
Procedure: as §1, §2, §3, §4, §5

[3] = test system: H1373 cell line (K-RAS G12C); experiment: cells; assay type: cell-based
Procedure: as §1, §2, §3, §4, §5

[4] = Stability test in human plasma
KRAS G12C protein = biological target: T1, KRAS G12C protein (Homo sapiens, UniProt P01116, G12C); experiment: ERK protein phosphorylation assay (p-ERK) in H358 cells; assay type: cell-based; design: scale not given here; conditions: H358 cells expressing KRAS G12C protein, 3 h incubation with compound; read-out: IC50, inhibiting phosphorylation of KRAS G12C protein-mediated downstream signaling (p-ERK)
T1 construct: H358 cells (ATCC, CRL-5807) expressing KRAS G12C protein; host or cells: H358 (NCI-H358) cells
Procedure: The cells were cultured in a 5% CO2 cell incubator for 16 h. The serially diluted compound was added to the cell medium with Echo550 at a final DMSO concentration of 0.5%, and the incubation was continued for 3 h. Then 8% paraformaldehyde (Solarbio, P1112) was added at 40 μL/well, followed by incubation at room temperature for 20 min. After one washing with PBS, cold 100% methanol was added at 40 μL/well for permeabilization for 10 min. […] Washing with PBST was performed 3 times, with 2 min of incubation for each washing. […] Washing with PBST was performed 3 times, with 2 min of incubation for each washing. Finally, the cell culture plate was inverted and centrifuged at 1000 rpm for 1 min, after which fluorescence signals were read using Odyssey CLx.

[5] = test system: H358 cell line (K-RAS G12C); experiment: cells; assay type: cell-based, human
Procedure: as §1, §2, §3, §4, §5

[6] = test system: NCI-H358 tumor (K-RAS G12C mutation); assay type: in vivo, BALB/c nude mice; conditions: for Tumor regression: animals with regression / group of 8
Procedure: The cells were digested with trypsin-EDTA twice a week for passaging as per conventional practice. When the cell saturation reached 80%-90% and a required amount was achieved, the cells were collected and counted for later use. […] 5% DMSO/5% Solutol/90% water was used as a blank control. 3) Tumor inoculation and drug administration: BALB/c nude mice, female, 6-8 weeks old, weighing 18-20 g. The experiment started after 3-7 days of adaptive feeding. 0.1 mL of NCI-H358 cells (5×10^6 cells) were inoculated subcutaneously on the right back of each mouse. The mice were grouped for administration when the average tumor volume reached approximately 150 mm^3. The animals were weighed before administration and the tumor volume was measured. Grouping was randomly performed according to the tumor volume.
Animals were monitored daily for health and death, and routine examinations include observation of the effect of tumor growth and drug treatment on the daily performance of the animals, such as behavioral activities, food and water intake, weight changes (measured once every other day), appearance, or other abnormal conditions. Animal mortality and side effects within each group were recorded based on the number of animals in the group.
Tumor diameters were measured 2-3 times weekly using a vernier caliper.
The tumor volume was calculated as follows: […]
where a and b represent the long and short diameters of the tumor, respectively.
The anti-tumor therapeutic effect of the compound was evaluated by tumor growth inhibition rate TGI (%) or relative tumor proliferation rate T/C (%).
TGI (%) was calculated as follows: […]
T/C (%) was calculated as follows: […]
where TRTV represents the relative tumor volume of the treatment group; CRTV represents the relative tumor volume of the solvent control group.
Based on the results of tumor measurement, the relative tumor volume (RTV) was calculated as follows: […]
where V0 represents the average tumor volume measured at the time of grouping and administration (i.e., d0), Vt represents the average tumor volume in a certain measurement, and TRTV and CRTV take the data on the same day.
After the completion of the experiment, tumors were weighed, and the percentage of Tweight/Cweight was calculated, where Tweight and Cweight represent the tumor weights of the treatment group and the solvent control group, respectively.
Data calculation and analysis: T test was employed for comparison between two groups. One-way ANOVA was employed for comparison between three or more groups. If there is a significant difference in F-values, multiple comparisons should be made after ANOVA analysis. All data analyses were performed with SPSS 17.0. p<0.05 was defined as a significant difference.

in vitro = conditions: microsomes
Procedure: To examine the in vitro metabolic stability of the test compounds in liver microsomes of different species, representative compounds were selected, and their stability was evaluated by measuring the concentration of the test compounds in the incubation system using LC/MS/MS and calculating their intrinsic clearance in the microsome system.
The method is specifically as follows: each compound was first dissolved in DMSO to prepare a 200 μM working solution and added to the system solution at the time of testing to form a solution with a final concentration of 1 μM.
The microsomes were stored in a −80° C. freezer.
Preparation of incubation system: an incubation system was prepared as described in the table below.
25 μL, of NADPH or phosphate buffered saline was transferred to the incubation system described above, and 2 μL, of 200 μM of the test compound or verapamil was added. The sample with NADPH added was prepared in duplicate; the NADPH negative sample was prepared in single parallel. 30 μL, of suspension was taken at 0.5, 5, 15, 30 and 60 minutes. The reaction system was terminated by adding 180 μL, of acetonitrile containing an internal standard and vortexed for 10 min. […] 100 μL, of the supernatant was transferred to a feeding plate, and 100 μL, of purified water was added. The mixture was well mixed for UPLC-MS/MS analysis.
The results based on the data were obtained by calculation according to the peak area ratio, and the peak area was detected through an extracted ion chromatogram.
The slope value (k) was determined by linear fitting of the natural logarithm of drug elimination percentage over time.

[7] = human, plasma
Caco-2 cells = experiment: in vitro; conditions: Caco-2
Procedure: Drug penetration test: the Transwell culture plate was retrieved from the incubator. […] All samples were prepared in double parallel. The integrity of the cell monolayer membrane after 2 hours of incubation was assessed using leakage of fluorescein; fluorescein stock solution was diluted with HBSS (25 mM HEPES, pH 7.4) to a final concentration of 100 μM. 100 μL of fluorescein solution was added to each well of the upper Transwell plate and 300 μL of HBSS (25 mM HEPES, pH 7.4) was added to each well of the lower receiving plate; after incubation at 37° C. for 30 min, 80 μL of the solution was pipetted from the upper and lower layers of each well to a new 96-well plate.
The apparent permeability coefficients (Papp, unit: cm/s) of the compounds in Caco-2 cells were calculated from the specific concentrations at the acceptor and donor ends, and the specific calculation formula is as follows: […]
where VA represents the volume of the acceptor end solution (0.3 mL for Ap→Bl, 0.1 mL for Bl→Ap); Area represents the area of the Transwell-96 well plate (0.143 cm^2); time represents the incubation time (unit: s); [drug]acceptor represents the drug concentration (ratio of peak area to internal standard area) at the acceptor end; [drug]initial, donor represents the drug concentration at the donor end (ratio of peak area to internal standard area).
The efflux ratio was calculated as follows: […]
where Papp (B-A) represents the apparent permeability coefficient from base end to top end; Papp (A-B) represents the apparent permeability coefficient from top end to base end.

T1 sequence (P01116 1-188 isoform P01116-2 G12C): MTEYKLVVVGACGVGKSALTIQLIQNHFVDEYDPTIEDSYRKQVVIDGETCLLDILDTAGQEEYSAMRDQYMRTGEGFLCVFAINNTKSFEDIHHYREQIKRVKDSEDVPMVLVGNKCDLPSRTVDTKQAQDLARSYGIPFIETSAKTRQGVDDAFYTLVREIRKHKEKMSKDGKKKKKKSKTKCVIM

[2H]C([2H])([2H])c1cccc2cccc(N3CCc4c(nc(OC[C@@H]5CCCN5C([2H])([2H])[2H])nc4N4CCN(C(=O)C=C)[C@@H](CC#N)C4)C3)c12 [Compound 17, 2-((S)-1-acryloyl-4-(7-(8-(methyl-d3)naphthalen-1-yl)-2-(((S)-1-(methyl-d3)pyrrolidin-2-yl)methoxy)-5,6,7,8-tetrahydropyrido[3,4-d]pyrimidin-4-yl)piperazin-2-yl)acetonitrile]
IC50 ([1]; Homo sapiens, MIA PaCa-2, 96 h, 3D culture, CellTiter-Glo 3D, read on day 4, read-out: MIA PaCa-2 (K-RAS G12C) IC50): 0.44 nM | Selectivity (fold number of mutant vs. wild type) ([1]; PC-9 IC50 vs. MIA PaCa-2 IC50): 10659 fold | IC50 [2]: 4690 nM | IC50 ([3]; Homo sapiens, NCI-H1373, 96 h, 3D culture, CellTiter-Glo 3D, read on day 4, read-out: H1373 (K-RAS G12C) IC50): 0.32 nM | Selectivity (fold number of mutant vs. wild type) ([3]; PC-9 IC50 vs. H1373 IC50): 14656 fold | Remaining percentage (%) 0 min ([4]; human plasma, 37° C., 0 min): 100.00% | Remaining percentage (%) 30 min ([4]; human plasma, 37° C., 30 min): 97.00% | Remaining percentage (%) 60 min ([4]; human plasma, 37° C., 60 min): 92.97% | Remaining percentage (%) 120 min ([4]; human plasma, 37° C., 120 min): 78.91% | Remaining percentage (%) 180 min ([4]; human plasma, 37° C., 180 min): 59.98% | Remaining percentage (%) 240 min ([4]; human plasma, 37° C., 240 min): 47.82% | half-life at 5 μM ([4]; human, plasma): 3.63 h | IC50 (KRAS G12C protein): < 1000 nM | IC50 ([5]; Homo sapiens, NCI-H358, 96 h, 3D culture, CellTiter-Glo 3D, read on day 4, read-out: H358 (K-RAS G12C) IC50): 0.34 nM | Selectivity (fold number of mutant vs. wild type) ([5]; PC-9 IC50 vs. H358 IC50): 13794 fold | Day 0 Tumor volume (mm^3) Vaverage ± SEM ([6]; Day 0 (at grouping, before administration), 15 mg/kg PO QD group): 151 ± 10 mm^3 | Day 21 Tumor volume (mm^3) Vaverage ± SEM ([6]; Day 21, 15 mg/kg PO QD): 90 ± 12 mm^3 | Tumor inhibition rate TGI (%) ([6]; Day 21, 15 mg/kg PO QD): 110.7% | Tumor regression ([6]; Day 21, 15 mg/kg PO QD): 8/8 | Tumor regression ([6]; Day 21, 15 mg/kg PO QD, listed as compound 17): the tumors in all of the animals regressed | Day 0 Body weight (g) Waverage ± SEM ([6]; mouse, in vivo, po, 15 mg/kg): 22.6 ± 0.7 g

C=CC(=O)N1CCN(c2nc(OC[C@@H]3CCCN3C)nc3c2CCN(c2cccc4cccc(C)c24)C3)C[C@@H]1CC#N [MRTX-1257, reference compound]
CLint (μL/min/mg protein) (in vitro; human): 54.30 μL/min/mg protein | t1/2 (in vitro; human): 0.4263 h | CLint (μL/min/mg protein) (in vitro; mouse): 74.97 μL/min/mg protein | t1/2 (in vitro; mouse): 0.3082 h | t1/2 [7]: 1.608 h | Remaining percentage (%) 0 min ([7]; 0 h): 100.00% | Remaining percentage (%) 30 min ([7]; 0.5 h): 88.91% | Remaining percentage (%) 60 min ([7]; 1 h): 82.31% | Remaining percentage (%) 120 min ([7]; 2 h): 55.64% | Remaining percentage (%) 180 min ([7]; 3 h): 32.06% | Remaining percentage (%) 240 min ([7]; 4 h): 18.12% | Efflux ratio (Caco-2 cells): 16.31

Reference: patent publication US20230257374A1, “NOVEL KRAS G12C PROTEIN INHIBITOR, PREPARATION METHOD THEREFOR, AND USE THEREOF” (INNOVENT BIOLOGICS (SUZHOU) CO., LTD., priority 2019, published 2023)
